SMILES strings stand for the structures. pEC50: −log10 of the molar value.

For assay [1], the target named is human muscarinic M3 receptor (Homo sapiens, UniProt P20309). Put plainly: Alphascreen Surefire phospho-ERK1/2 functional assay, M3. As to conditions: for Emax: CHO, read-out: % Emax cf. ACh, M3, CHO cells stably expressing human M3, relative to ACh; for pEC50: pEC50 M3, CHO cells stably expressing human M3, phospho-ERK1/2, * = variable results.
The target in assay [2] is T1, human muscarinic M1 receptor (Homo sapiens, UniProt P11229).
T1 sequence (P11229 1-460): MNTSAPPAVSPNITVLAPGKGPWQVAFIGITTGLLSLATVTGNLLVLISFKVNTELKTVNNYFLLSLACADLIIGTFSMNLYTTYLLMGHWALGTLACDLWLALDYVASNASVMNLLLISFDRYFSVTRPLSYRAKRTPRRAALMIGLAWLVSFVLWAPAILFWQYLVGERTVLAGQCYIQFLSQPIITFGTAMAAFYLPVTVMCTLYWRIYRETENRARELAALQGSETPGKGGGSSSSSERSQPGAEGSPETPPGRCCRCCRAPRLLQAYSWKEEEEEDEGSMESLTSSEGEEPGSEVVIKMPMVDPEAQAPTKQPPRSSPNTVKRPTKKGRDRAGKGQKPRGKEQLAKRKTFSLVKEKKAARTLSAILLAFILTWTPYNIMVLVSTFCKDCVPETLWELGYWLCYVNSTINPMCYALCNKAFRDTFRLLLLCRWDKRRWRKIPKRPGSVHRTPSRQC
The assay can be described thus: Alphascreen Surefire phospho-ERK1/2 functional assay, M1. The class given is cell-based. As to conditions: for EC50: CHO cells stably expressing human M1, phospho-ERK1/2, * = variable results, read-out: pEC50 M1 (converted); for Emax: CHO, read-out: % Emax cf. ACh, M1, CHO cells stably expressing human M1, relative to ACh. (In general: Alpha assays give light when donor and acceptor beads are brought close together.)

For assay [3], the target named is T2, human muscarinic M2 receptor (Homo sapiens, UniProt P08172).
T2 sequence (P08172 1-466): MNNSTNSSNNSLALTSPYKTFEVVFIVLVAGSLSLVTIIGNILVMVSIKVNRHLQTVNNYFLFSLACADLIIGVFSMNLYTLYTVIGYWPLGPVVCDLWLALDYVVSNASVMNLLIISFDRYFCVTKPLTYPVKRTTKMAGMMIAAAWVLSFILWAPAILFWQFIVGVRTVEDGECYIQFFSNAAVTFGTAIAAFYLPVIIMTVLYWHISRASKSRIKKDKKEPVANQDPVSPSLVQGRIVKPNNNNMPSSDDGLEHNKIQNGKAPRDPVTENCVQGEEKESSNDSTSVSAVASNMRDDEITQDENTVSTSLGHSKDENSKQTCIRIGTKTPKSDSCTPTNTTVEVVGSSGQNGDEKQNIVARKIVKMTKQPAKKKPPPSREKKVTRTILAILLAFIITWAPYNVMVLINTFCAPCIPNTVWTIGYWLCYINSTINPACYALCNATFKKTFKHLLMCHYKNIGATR
Put plainly: Alphascreen Surefire phospho-ERK1/2 functional assay, M2. As to conditions: for Emax: CHO, read-out: % Emax cf. ACh, M2, CHO cells stably expressing human M2, relative to ACh.

Assay [4] addresses T3, human muscarinic M4 receptor (Homo sapiens, UniProt P08173).
T3 construct: expressed in transfected cells
T3 sequence (P08173 1-479): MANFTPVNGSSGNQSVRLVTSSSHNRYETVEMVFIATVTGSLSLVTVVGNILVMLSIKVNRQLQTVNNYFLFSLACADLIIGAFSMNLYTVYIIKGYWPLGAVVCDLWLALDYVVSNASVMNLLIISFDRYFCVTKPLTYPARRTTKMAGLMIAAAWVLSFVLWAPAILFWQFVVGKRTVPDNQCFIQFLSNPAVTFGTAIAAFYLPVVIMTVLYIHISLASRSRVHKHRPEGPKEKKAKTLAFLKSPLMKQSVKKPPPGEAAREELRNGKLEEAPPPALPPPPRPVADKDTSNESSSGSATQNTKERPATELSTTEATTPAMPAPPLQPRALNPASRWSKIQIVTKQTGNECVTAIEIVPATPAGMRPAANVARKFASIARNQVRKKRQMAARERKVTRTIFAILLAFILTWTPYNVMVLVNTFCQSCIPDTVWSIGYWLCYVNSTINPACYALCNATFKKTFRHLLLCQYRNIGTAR
The assay can be described thus: Alphascreen Surefire phospho-ERK1/2 functional assay, M4. The class given is cell-based. Particulars: for EC50: CHO cells stably expressing human M4, phospho-ERK1/2, * = variable results, read-out: pEC50 M4 (converted); for Emax: CHO, read-out: % Emax cf. ACh, M4, CHO cells stably expressing human M4, relative to ACh.

Chain of human muscarinic M3 receptor (P20309 whole entry): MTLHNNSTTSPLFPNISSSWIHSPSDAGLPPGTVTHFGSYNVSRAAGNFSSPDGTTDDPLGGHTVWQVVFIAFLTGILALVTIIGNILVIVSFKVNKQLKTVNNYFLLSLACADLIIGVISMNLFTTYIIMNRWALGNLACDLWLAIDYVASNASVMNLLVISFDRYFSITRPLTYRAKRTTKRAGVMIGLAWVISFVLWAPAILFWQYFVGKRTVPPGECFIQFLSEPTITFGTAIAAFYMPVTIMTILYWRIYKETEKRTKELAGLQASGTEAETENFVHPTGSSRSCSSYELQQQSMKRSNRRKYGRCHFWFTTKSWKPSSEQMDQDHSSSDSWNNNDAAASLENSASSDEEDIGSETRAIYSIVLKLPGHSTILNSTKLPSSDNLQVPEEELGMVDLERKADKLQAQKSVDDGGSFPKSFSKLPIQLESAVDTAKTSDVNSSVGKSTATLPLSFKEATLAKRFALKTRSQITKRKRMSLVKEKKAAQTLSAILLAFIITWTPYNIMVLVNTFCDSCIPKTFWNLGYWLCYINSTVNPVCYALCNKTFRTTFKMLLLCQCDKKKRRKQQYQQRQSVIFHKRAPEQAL

In the case of `COC(=O)N1CCC2(CC(N3CCC(c4c(C)cnn4C)CC3)C2)C1` (single isomer, unassigned) [1-57 Isomer 2, methyl 2-[4-(1,4-dimethyl-1H-pyrazol-5-yl)piperidin-1-yl]-6-azaspiro[3.4]octane-6-carboxylate], the Emax – broadly, the size of the effect at its maximum, as opposed to the concentration needed – in assay [1] amounted to 7%; in assay [2], 63%; in assay [3], 7%; in assay [4], 69%. The pEC50 in assay [1] and in assay [3] was below 4.70 in each case. In addition, the EC50 was 2000 nM in assay [2] and 126 nM in assay [4].
Regarding `CCOC(=O)N1CCC2(CC(N3CCC(c4c(C)cnn4C)CC3)C2)C1` (single isomer, unassigned) [1-58 Isomer 2, ethyl 2-[4-(1,4-dimethyl-1H-pyrazol-5-yl)piperidin-1-yl]-6-azaspiro[3.4]octane-6-carboxylate], the Emax came to 2% in assay [1], 55% in assay [2], 13% in assay [3] and 93% in assay [4]. Also, the pEC50 in assay [1] and in assay [3] was below 4.70 each time. Also, the EC50 was 794 nM in assay [2] and 31.6 nM in assay [4].
Turning to `CCOC(=O)N1CCC2(CC(N3CCC(n4nccn4)CC3)C2)C1` (single isomer, unassigned) [1-61 Isomer 2, ethyl 2-[4-(2H-1,2,3-triazol-2-yl)piperidin-1-yl]-6-azaspiro[3.4]octane-6-carboxylate], the Emax was determined as 2% in assay [1], 66% in assay [2], 1% in assay [3] and 97% in assay [4]. In addition, the pEC50 in assay [1] and in assay [3] was below 4.70 in each case. The results for the EC50 in assay [2] and in assay [4] were 316 nM and 25.1 nM, respectively.
With `CCOC(=O)N1CCC2(CC(N3CCC(C4CCCN4)CC3)C2)C1` (single isomer, unassigned) [2-1 Isomer 2, ethyl 2-[4-(pyrrolidin-2-yl)piperidin-1-yl]-6-azaspiro[3.4]octane-6-carboxylate], the pEC50 in assay [1] and in assay [3] was below 4.70 in each case. Further, the EC50 is above 20000 nM in assay [2] and 316 nM in assay [4]. Besides, the Emax in assay [2] was 6%; in assay [4] it was 63%.
`CCOC(=O)N1CCC2(CC(N3CCC(C4CCCN4C=O)CC3)C2)C1` (single isomer, unassigned) [2-2 Isomer 2, ethyl 2-[4-(1-formylpyrrolidin-2-yl)piperidin-1-yl]-6-azaspiro[3.4]octane-6-carboxylate]: the Emax in assay [1] turned out to be 16%; in assay [2], 39%; in assay [3] it was 53%; in assay [4], 79%. Also, the pEC50 in assay [1] and in assay [3] was below 4.70 each time. Besides, the EC50 is 794 nM in assay [2] and 63.1 nM in assay [4].
As for `CCOC(=O)N1CCC2(CC(N3CCC(C4CCCN4C(C)=O)CC3)C2)C1` (single isomer, unassigned) [2-3 Isomer 2, ethyl 2-[4-(1-acetylpyrrolidin-2-yl)piperidin-1-yl]-6-azaspiro[3.4]octane-6-carboxylate], the Emax turned out to be 4% in assay [1], 32% in assay [2], 14% in assay [3] and 89% in assay [4]. The pEC50 in assay [1] and in assay [3] was below 4.70 in each case. For the same molecule, the EC50 in assay [2] is 10000 nM; in assay [4] it was 50.1 nM.
Take `CCOC(=O)N1CCC2(CC(N3CCC(C4CCCN4C(=O)C(F)(F)F)CC3)C2)C1` (single isomer, unassigned) [2-4 Isomer 2, ethyl 2-{4-[1-(trifluoroacetyl)pyrrolidin-2-yl]piperidin-1-yl}-6-azaspiro[3.4]octane-6-carboxylate]: the Emax worked out at 3% in assay [1], 102% in assay [2], 2% in assay [3] and 110% in assay [4]. Further, the pEC50 in assay [1] and in assay [3] was below 4.70 each time. Moreover, the EC50 was 316 nM in assay [2] and 50.1 nM in assay [4].

Values taken from patent publication US9926297B2, “Bicyclic AZA compounds as muscarinic M1 receptor and/or M4 receptor agonists” (Heptares Therapeutics Limited, priority 2014, dated 2018).
